Data: PubChem BioAssay (NCI)
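1) Cells in 96-well plates. 2) Compound, 48 h, 5 concentrations. 3) Linear interpolation between surrounding doses. 4) Unreached endpoint = highest concentration. Here, GI50 denotes the concentration required for 50% inhibition of growth. TGI: concentration producing complete growth inhibition.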

Columns and labels:
Assay in all cases: inhibition of tumour cell growth, NCI panel, 48 h
786-0 renal = system: 786-0 renal
A498 renal = system: A498 renal
A549 NSCLC = system: A549 NSCLC
ACHN renal = system: ACHN renal
BT-549 breast = system: BT-549 breast
CAKI-1 renal = system: CAKI-1 renal
CCRF-CEM leukemia = system: CCRF-CEM leukemia
COLO 205 colon = system: COLO 205 colon
DU-145 prostate = system: DU-145 prostate
EKVX NSCLC = system: EKVX NSCLC
HCC-2998 colon = system: HCC-2998 colon
HCT-116 colon = system: HCT-116 colon
HCT-15 colon = system: HCT-15 colon
HL-60(TB) leukemia = system: HL-60(TB) leukemia
HOP-62 NSCLC = system: HOP-62 NSCLC
HOP-92 NSCLC = system: HOP-92 NSCLC
HS 578T breast = system: HS 578T breast
HT29 colon = system: HT29 colon
IGROV1 ovarian = system: IGROV1 ovarian
K-562 leukemia = system: K-562 leukemia
KM12 colon = system: KM12 colon
LOX IMVI melanoma = system: LOX IMVI melanoma
M14 melanoma = system: M14 melanoma
MALME-3M melanoma = system: MALME-3M melanoma
MCF7 breast = system: MCF7 breast
MDA-MB-231 breast = system: MDA-MB-231 breast
MDA-MB-435 = system: MDA-MB-435
MOLT-4 leukemia = system: MOLT-4 leukemia
NCI-H226 lung = system: NCI-H226 lung
NCI-H23 lung = system: NCI-H23 lung
NCI-H460 lung = system: NCI-H460 lung
NCI-H522 lung = system: NCI-H522 lung
NCI/ADR-RES ovarian = system: NCI/ADR-RES ovarian
OVCAR-3 ovarian = system: OVCAR-3 ovarian
OVCAR-4 ovarian = system: OVCAR-4 ovarian
OVCAR-5 ovarian = system: OVCAR-5 ovarian
OVCAR-8 ovarian = system: OVCAR-8 ovarian
RXF 393 renal = system: RXF 393 renal
SF-268 CNS = system: SF-268 CNS
SF-295 CNS = system: SF-295 CNS
SF-539 CNS = system: SF-539 CNS
SK-MEL-2 melanoma = system: SK-MEL-2 melanoma
SK-MEL-28 melanoma = system: SK-MEL-28 melanoma
SK-MEL-5 melanoma = system: SK-MEL-5 melanoma
SK-OV-3 ovarian = system: SK-OV-3 ovarian
SN12C renal = system: SN12C renal
SNB-19 CNS = system: SNB-19 CNS
SNB-75 CNS = system: SNB-75 CNS
SR leukemia = system: SR leukemia
SW-620 colon = system: SW-620 colon
T-47D breast = system: T-47D breast
TK-10 renal = system: TK-10 renal
U251 CNS = system: U251 CNS
UACC-257 melanoma = system: UACC-257 melanoma
UACC-62 melanoma = system: UACC-62 melanoma
UO-31 renal = system: UO-31 renal

## COc1ccc(-c2cc(-c3ccc(OC)cc3)nc(NCCCNc3ccnc4cc(Cl)ccc34)n2)cc1
786-0 renal
  GI50: 1.62 µM
  TGI: 2.99 µM
A498 renal
  GI50: 5.32 µM
  TGI: 18.3 µM
A549 NSCLC
  GI50: 1.81 µM
  TGI: 3.66 µM
ACHN renal
  GI50: 1.82 µM
  TGI: 3.22 µM
BT-549 breast
  GI50: 13.1 µM
  TGI: 27.8 µM
CAKI-1 renal
  GI50: 11.8 µM
  TGI: 25.8 µM
CCRF-CEM leukemia
  GI50: 2.26 µM
  TGI: 6.98 µM
COLO 205 colon
  GI50: 1.72 µM
  TGI: 3.58 µM
DU-145 prostate
  GI50: 1.88 µM
  TGI: 3.38 µM
EKVX NSCLC
  GI50: 1.67 µM
  TGI: 4.17 µM
HCC-2998 colon
  GI50: 1.73 µM
  TGI: 3.2 µM
HCT-116 colon
  GI50: 1.45 µM
  TGI: 2.76 µM
HCT-15 colon
  GI50: 1.68 µM
  TGI: 3.45 µM
HL-60(TB) leukemia
  GI50: 1.91 µM
  TGI: 3.86 µM
HOP-62 NSCLC
  GI50: 1.56 µM
  TGI: 3.06 µM
HOP-92 NSCLC
  GI50: 1.24 µM
  TGI: 2.64 µM
HS 578T breast
  GI50: 14.9 µM
  TGI: 44.8 µM
HT29 colon
  GI50: 1.56 µM
  TGI: 3.06 µM
IGROV1 ovarian
  GI50: 1.51 µM
  TGI: 3.12 µM
K-562 leukemia
  GI50: 1.79 µM
  TGI: 4.6 µM
KM12 colon
  GI50: 1.78 µM
  TGI: 3.28 µM
LOX IMVI melanoma
  GI50: 1.79 µM
  TGI: 3.25 µM
M14 melanoma
  GI50: 1.74 µM
  TGI: 3.28 µM
MALME-3M melanoma
  GI50: 1.76 µM
  TGI: 3.26 µM
MCF7 breast
  GI50: 1.65 µM
  TGI: 3.5 µM
MDA-MB-231 breast
  GI50: 1.95 µM
  TGI: 3.59 µM
MDA-MB-435
  GI50: 1.73 µM
  TGI: 3.18 µM
MOLT-4 leukemia
  GI50: 1.84 µM
  TGI: 6.09 µM
NCI-H226 lung
  GI50: 11.3 µM
  TGI: 28.2 µM
NCI-H23 lung
  GI50: 1.8 µM
  TGI: 3.72 µM
NCI-H460 lung
  GI50: 1.77 µM
  TGI: 3.32 µM
NCI-H522 lung
  GI50: 1.92 µM
  TGI: 3.81 µM
NCI/ADR-RES ovarian
  GI50: 1.62 µM
  TGI: 3.28 µM
OVCAR-3 ovarian
  GI50: 1.7 µM
  TGI: 3.14 µM
OVCAR-4 ovarian
  GI50: 1.65 µM
  TGI: 3.35 µM
OVCAR-5 ovarian
  GI50: 1.67 µM
  TGI: 3.14 µM
OVCAR-8 ovarian
  GI50: 1.81 µM
  TGI: 3.57 µM
RXF 393 renal
  GI50: 1.32 µM
  TGI: 2.74 µM
SF-268 CNS
  GI50: 1.65 µM
  TGI: 3.3 µM
SF-295 CNS
  GI50: 13.9 µM
  TGI: 32 µM
SF-539 CNS
  GI50: 7.16 µM
  TGI: 21.4 µM
SK-MEL-2 melanoma
  GI50: 14 µM
  TGI: 28.4 µM
SK-MEL-28 melanoma
  GI50: 1.73 µM
  TGI: 3.21 µM
SK-MEL-5 melanoma
  GI50: 1.54 µM
  TGI: 2.89 µM
SK-OV-3 ovarian
  GI50: 1.71 µM
  TGI: 3.14 µM
SN12C renal
  GI50: 1.71 µM
  TGI: 3.34 µM
SNB-19 CNS
  GI50: 1.96 µM
  TGI: 3.99 µM
SNB-75 CNS
  GI50: 11.8 µM
  TGI: 24.5 µM
SR leukemia
  GI50: 1.43 µM
  TGI: 5.86 µM
SW-620 colon
  GI50: 1.69 µM
  TGI: 3.34 µM
T-47D breast
  GI50: 1.66 µM
  TGI: 3.9 µM
TK-10 renal
  GI50: 1.97 µM
  TGI: 3.56 µM
U251 CNS
  GI50: 1.6 µM
  TGI: 3 µM
UACC-257 melanoma
  GI50: 1.96 µM
  TGI: 3.83 µM
UACC-62 melanoma
  GI50: 2.76 µM
  TGI: 7.26 µM
UO-31 renal
  GI50: 1.32 µM
  TGI: 2.6 µM
